Columns and labels:
M5 (h) = biological target: T1, M5 (h) (Homo sapiens, UniProt P08912); test: Radioligand binding panel, M5 (h) (antagonist radioligand); conditions: % inhibition of control specific binding
T1 construct: Eurofins (contract panel)
T1 sequence (P08912 1-532): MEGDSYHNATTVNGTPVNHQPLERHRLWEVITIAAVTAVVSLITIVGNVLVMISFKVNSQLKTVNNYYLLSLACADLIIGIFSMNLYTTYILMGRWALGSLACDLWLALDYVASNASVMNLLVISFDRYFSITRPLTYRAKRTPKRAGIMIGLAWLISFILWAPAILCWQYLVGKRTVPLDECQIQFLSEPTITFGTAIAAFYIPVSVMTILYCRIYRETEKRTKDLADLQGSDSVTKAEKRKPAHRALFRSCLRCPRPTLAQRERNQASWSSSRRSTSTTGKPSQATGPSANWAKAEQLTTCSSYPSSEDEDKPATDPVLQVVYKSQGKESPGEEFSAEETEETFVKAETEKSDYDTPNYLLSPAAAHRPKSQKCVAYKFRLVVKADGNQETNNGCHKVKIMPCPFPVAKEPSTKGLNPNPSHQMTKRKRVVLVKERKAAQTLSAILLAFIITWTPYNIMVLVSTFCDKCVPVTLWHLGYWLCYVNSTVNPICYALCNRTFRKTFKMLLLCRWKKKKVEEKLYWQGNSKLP
Experimental: (§1) Oxafuramine is tested at 10^−5 M, calculated as a % inhibition of control specific binding of a radioactively labeled ligand specific for each target.
(§2) This binding profile panel was broadly defined with roughly an equal number of selective, central and peripheral therapeutically relevant targets, including native animal tissues, radioligands and specific enzymes involved in cell cycle regulation in accordance with Eurofins Standard Operating Procedure (www.eurofins.fr).
(§3) For radioligand binding experiments, the half maximal inhibitory concentration (IC50) and the half maximal effective concentration (EC50) values were determined (via computer software) by nonlinear regression analysis of the competition curves using Hill equation curve fitting. The inhibition constants (Ki) were calculated using the Cheng-Prusoff equation (Ki=IC50/(1+(L/KD)), where L is the concentration of radioligand in the assay, and KD is the affinity of the radioligand for the receptor.
(§4) The results are expressed as a % control specific binding ([measured specific binding/control specific binding]×100) and as a % inhibition of control specific binding (100−[(measured specific binding/control specific binding)×100]) obtained in the presence of the test compounds. […]

[1] = system: memory (recognition of the familiar object) in mice; test: Novel Object Recognition (NOR) test in mice; type: in vivo, C57BL/6J, male; conditions: choice trial, mean, N = 16
Experimental: The test was carried out in circular boxes (30 cm diameter, 40 cm high). The objects to be discriminated (L≈1≈h≈3-4 cm) differed in both color and shape and were referred as yellow duck and blue lego. They were fixed with a magnet to the floor of the boxes at 5 cm of the wall, 20 cm distant. Apparently, they have no natural significance for mice and they have never been associated with a reinforcement. In order to rule out the possibility of scent traces left on the objects and therefore the dependency of the recognition capacity of mice on the olfactory cue, the objects and the ground of the box were washed with an odorless disinfectant (Sanicid® diluted in water) and dried between each trial. A camcorder was fixed to the ceiling above the box to record the animals' activity. The experiment was analyzed blindly at a later time.
On the week before the test, animals were handled by the experimenter in charge of the experiment in order to be not stressed at the time of testing. For this purpose, the experimenter placed a small amount of litter, and then the mouse on its hand.
The NOR test was completed over five days (see FIG. 1): • Day 1: Habituation trial. Animals were individually placed for a 15-min free exploration session in empty open boxes. • Day 2. Treatment administration and sample trial. […] They were individually placed 30 min after in the apparatus for a 6-min session with two identical objects (Duck, 50% of animals or Lego, 50% of animals). • Day 3. Choice trial. The mice were individually placed for a 6-min session in the apparatus with two objects (Duck and Lego), one of the objects presented in sample trials (termed as familiar objects) and a novel object (Lego, 50% of animals or Duck, 50% of animals).
The sample and choice trials were recorded with the camera located above the apparatus. The time spent by mice in exploring the objects was measured during the sample trial and the choice trial. Exploration of an object was defined as follows: directing the nose to the object at a distance≤2 cm and/or touching it with the nose or forelimbs; turning around or biting the object, or sitting on the object were not considered as exploratory behavior.
• L=exploration time of the left object in the sample trial. • R=exploration time of the right object in the sample trial. • N=exploration time of the new object in the choice trial. • F=exploration time of the familiar object in the choice trial.
• Exploration indices: • ST=L+R=exploration time (left object+right object) in the sample trial. • CT=N+F=exploration time (new object+familiar object) in the choice trial. • Two memory indices: • N-F=difference of exploration time between the new object and the familiar object in the choice trial.
Statistical analyses: • Read-outs: DI, N-F, ST, CT, N, F • Unpaired Student's t test: Donep 2 group vs. Control group. • One-way ANOVA, Dunnett test: • NLS-12 groups vs. Control group. • NLS-12 groups vs. Donep 2 group. • Read-outs: DI and N-F, for all groups, paired Student's t test, difference vs. 0. • Body weight: one-way ANOVA.

M4 (h) = biological target: T2, M4 (h) (Homo sapiens, UniProt P08173); test: Radioligand binding panel, M4 (h) (antagonist radioligand); conditions: % inhibition of control specific binding
T2 construct: Eurofins (contract panel)
T2 sequence (P08173 1-479): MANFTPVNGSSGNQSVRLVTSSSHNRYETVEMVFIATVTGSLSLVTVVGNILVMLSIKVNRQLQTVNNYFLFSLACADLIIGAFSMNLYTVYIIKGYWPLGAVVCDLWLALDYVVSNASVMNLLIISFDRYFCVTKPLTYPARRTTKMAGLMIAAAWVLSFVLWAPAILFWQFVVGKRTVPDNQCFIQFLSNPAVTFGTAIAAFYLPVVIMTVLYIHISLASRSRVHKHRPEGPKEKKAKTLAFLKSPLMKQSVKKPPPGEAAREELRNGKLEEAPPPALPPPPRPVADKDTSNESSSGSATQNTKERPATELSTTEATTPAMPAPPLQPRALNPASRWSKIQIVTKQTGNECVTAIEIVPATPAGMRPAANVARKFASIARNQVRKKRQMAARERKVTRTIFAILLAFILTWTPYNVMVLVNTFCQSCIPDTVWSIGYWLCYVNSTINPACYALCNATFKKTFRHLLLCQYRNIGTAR
Experimental: as §1, §2, §3, §4

CCN[C@H](Cc1ccccc1)[C@H]1CCCO1 [Oxafuramine, (1R)—N-ethyl-1-[(2R)-oxolan-2-yl]-2-phenylethanamine]
inhibition at 10 µM (M5 (h); 10^−5 M): ~25% | % Inhibition at 10^−5M, M5 (h) (antagonist radioligand) (M5 (h)): 25.4% | F Exploration time of familiar object ([1]; NLS-12 1 mg/kg i.p.): 12.0 s | N Exploration time of novel object ([1]; NLS-12 1 mg/kg i.p.): 12.6 s | F Exploration time of familiar object ([1]; NLS-12 4 mg/kg i.p.): 11.0 s | N Exploration time of novel object ([1]; NLS-12 4 mg/kg i.p.): 14.7 s | F Exploration time of familiar object ([1]; NLS-12 8 mg/kg i.p.): 9.9 s | N Exploration time of novel object ([1]; NLS-12 8 mg/kg i.p.): 15.9 s | inhibition at 10 µM (M4 (h); 10^−5 M): ~51% | % Inhibition at 10^−5M, M4 (h) (antagonist radioligand) (M4 (h)): 50.8%

Reference: patent publication US20250268859A1, “OXAFURAMINE, (1R)-N-ETHYL-1-[(2R)-OXOLAN-2-YL]-2-[…], HYDROCHLORIDE AND DERIVATIVES THEREOF FOR TREATING ALZHEIMER'S DISEASE (AD), […] […], […] WITH LEWY BODIES (DLB), MIXED […], FRON[…] DEGENERATION (FTLD), AND PARKINSON'S DISEASE (PD)” (NLS Pharmaceutics AG, priority 2021, published 2025)
